Read-outs that look alike come from different tables or passages of the source.
What was measured:
hemoglobin = target: T1, hemoglobin (Homo sapiens, UniProt P68871+P69905); test: Percent Hb occupancy after repeated administration, healthy volunteers; type: in vivo
T1 construct: divided by the molar concentration of hemoglobin in RBCs; endogenous in cells; host or cells: red blood cells of healthy volunteers (in vivo)
Experimental: In some embodiments, the therapeutically effective amount is determined by measuring the percent of hemoglobin occupied by the compound, i.e., the percent Hb occupancy. The percent Hb occupancy is a measure of target engagement defined as the percentage of hemoglobin bound by a compound (e.g., Compound I) calculated as the molar concentration of the compound (e.g., Compound I) in RBCs divided by the molar concentration of hemoglobin in RBCs (the mean corpuscular hemoglobin concentration calculated from the hematology panel). The values for concentration of a compound (e.g., Compound I) in RBCs is calculated from the concentrations in whole blood and plasma, and the hematocrit.
(§1) Another study was initiated in healthy volunteer aged 18-55 years old to evaluate the safety and tolerability of multiple ascending doses of Compound I. Four cohorts of 10 subjects each (n=7 Compound I, n=3 placebo) were evaluated in a sequential double-blind manner. To reach steady state levels each subject received a loading dose regimen for 3 or 4 days followed by once daily medication for up to 14 days. Primary endpoints were safety and tolerability; key secondary endpoints included PK and effect on electrocardiogram (ECG) parameters. Table 7 below provides an overview of the doses of Compound I or placebo that were used in each cohort.
(§2) Preliminary whole blood PK parameters (geometric mean and % CV) and hemoglobin occupancy in healthy volunteers of the 15 mg, 25 mg, 50 mg, and 75 mg MAD cohorts are summarized in Table 10.

[1] = MAD study in healthy volunteers: whole blood and plasma PK; type: in vivo, human; details: for AUC(0-t): read-out: AUC0-24; for concentration at 14 day: read-out: Cmin
Experimental: as §1, §2

[2] = as above; type: in vivo, human; details: for Cmax / Tmax / AUC(0-t) / concentration at 14 day: human; for Tmax: median; for AUC(0-t): read-out: AUC0-24; for concentration at 14 day: read-out: Cmin
[3] = HV MAD Day 14, 15 mg QD maintenance, plasma
[4] = HV MAD Day 14, 15 mg QD maintenance, whole blood
[5] = HV MAD Day 14, 25 mg QD maintenance, plasma
[6] = HV MAD Day 14, 25 mg QD maintenance, whole blood
[7] = HV MAD Day 14, 50 mg QD maintenance, plasma
[8] = HV MAD Day 14, 75 mg QD maintenance, plasma
[9] = HV MAD Day 14, 75 mg QD maintenance, whole blood

T1 sequence (P69905 2-142 limits assumed): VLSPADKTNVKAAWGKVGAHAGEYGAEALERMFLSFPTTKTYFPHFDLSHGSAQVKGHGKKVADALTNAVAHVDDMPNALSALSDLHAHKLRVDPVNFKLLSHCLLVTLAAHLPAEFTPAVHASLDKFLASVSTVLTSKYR
T1 sequence (P68871 2-147 limits assumed): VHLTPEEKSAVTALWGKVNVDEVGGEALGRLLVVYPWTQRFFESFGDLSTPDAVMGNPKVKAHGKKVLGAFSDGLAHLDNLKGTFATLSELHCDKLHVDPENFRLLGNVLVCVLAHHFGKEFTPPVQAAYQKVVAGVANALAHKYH

## O=Cc1c(O)cccc1OC[C@@H]1COCCN1C(=O)c1cccnc1CCO [Compound I, (S)-2-hydroxy-6-((4-(2-(2-hydroxyethyl)nicotinoyl)morpholin-3-yl)methoxy)benzaldehyde]
hemoglobin; HV MAD Day 14, 15 mg QD maintenance (loading 200 mg x 3 days)
  receptor occupancy at 15 mg: 16%
hemoglobin; HV MAD Day 14, 25 mg QD maintenance (loading 200 mg x 3 days)
  receptor occupancy at 25 mg: 16.3%
hemoglobin; HV MAD Day 14, 50 mg QD maintenance (loading 500/400/400 mg)
  receptor occupancy at 50 mg: 25.8%
hemoglobin; HV MAD Day 14, 75 mg QD maintenance (loading 500/500/500/400 mg)
  receptor occupancy at 75 mg: 35.2%
[1]; HV MAD Day 14, 75 mg QD maintenance
  B:P ratio (mean AUC0-24 blood:mean AUC0-24 plasma): 140
[1]; human, HV MAD Day 14, 15 mg QD maintenance, whole blood
  AUC(0-t): 2840 µg·h/mL
[1]; human, HV MAD Day 14, 25 mg QD maintenance, whole blood
  concentration at 14 day: 135 µg/mL
[1]; human, HV MAD Day 14, 50 mg QD maintenance, whole blood, median
  Tmax: 3 h
[1]; human, HV MAD Day 14, 50 mg QD maintenance, whole blood
  AUC(0-t): 5140 µg·h/mL
[1]; human, HV MAD Day 14, 75 mg QD maintenance (loading 500/500/500/400 mg), whole blood
  Cmax: 308 µg/mL
[1]; human, HV MAD Day 14, 75 mg QD maintenance, whole blood
  concentration at 14 day: 297 µg/mL
[2]; HV MAD Day 14, 15 mg QD maintenance
  B:P ratio (mean AUC0-24 blood:mean AUC0-24 plasma): 182
[2]; HV MAD Day 14, 25 mg QD maintenance
  B:P ratio (mean AUC0-24 blood:mean AUC0-24 plasma): 194
[2]; HV MAD Day 14, 50 mg QD maintenance
  B:P ratio (mean AUC0-24 blood:mean AUC0-24 plasma): 149
[2]; HV, loading 300 mg x 3 days, maintenance 15, 25, 50 or 75 mg x 14 days (FIG. 2)
  PK among cohorts with multiple ascending doses: linear, dose-proportional PK
[2]; HV MAD Day 14, 15 mg QD maintenance (loading 200 mg x 3 days), whole blood
  Cmax: 130000 ng/mL
[2]; [3]
  Cmax: 830 ng/mL
  Tmax: 1 h
  AUC(0-t): 15.6 µg·h/mL
  concentration at 14 day: 680 ng/mL
[2]; [4]
  Tmax: 6 h
  concentration at 14 day: 121000 ng/mL
[2]; HV MAD Day 14, 25 mg QD maintenance (loading 200 mg x 3 days), whole blood
  Cmax: 141000 ng/mL
[2]; [5]
  Cmax: 900 ng/mL
  Tmax: 1.5 h
  AUC(0-t): 15.9 µg·h/mL
  concentration at 14 day: 660 ng/mL
[2]; [6]
  Tmax: 2 h
  AUC(0-t): 3090 µg·h/mL
[2]; HV MAD Day 14, 50 mg QD maintenance (loading 500/400/400 mg), whole blood
  Cmax: 236000 ng/mL
[2]; [7]
  Cmax: 1990 ng/mL
  Tmax: 1 h
  AUC(0-t): 34.5 µg·h/mL
  concentration at 14 day: 1450 ng/mL
[2]; HV MAD Day 14, 50 mg QD maintenance, whole blood
  concentration at 14 day: 210000 ng/mL
[2]; [8]
  Cmax: 2740 ng/mL
  Tmax: 1 h
  AUC(0-t): 48.6 µg·h/mL
  concentration at 14 day: 2220 ng/mL
[2]; [9]
  Tmax: 3 h
  AUC(0-t): 6760 µg·h/mL
